Data as given in US20140023611A1 (priority 2010, published 2014).
Values belong to the compound of their own block, whether it stands above or below them.

Columns and labels:
[1] = Stability of compounds in simulated gastric and intestinal fluid; type: in vitro ADME; conditions: Structure (V) examples, Table 3, 3 hr
Description: (§1) Test compounds were incubated at 1-20 μM in simulated gastric fluid (SGF; standard USP solution with 3 mg/mL pepsin) or simulated intestinal fluid (SIF; standard USP solution with 3 mg/mL pancreatin) for 3 hr or 6 hr. HPLC-UV or HPLC-MS were used to determine test compound levels using peak area %. Results (Table 5) were reported as the percentage of test compound remaining after incubation in a given condition relative to test compound present at t=0 in the same condition.
as §1, with “3” for “3 hr or 6”, “3)” for “5)”

rat NaP2b (SLC34A2) [2] = molecular target: T1, rat NaP2b (SLC34A2) (Rattus norvegicus, UniProt Q9JJ09); assay: NaP2b-mediated Pi transport (33P uptake) in transfected HEK293 cells, rat NaP2b; type: cell-based; conditions: for pIC50 range for rat Nap2b: HEK293, 0.1 mM phosphate
T1 construct: host or cells: HEK293
T1 sequence (Q9JJ09 1-695): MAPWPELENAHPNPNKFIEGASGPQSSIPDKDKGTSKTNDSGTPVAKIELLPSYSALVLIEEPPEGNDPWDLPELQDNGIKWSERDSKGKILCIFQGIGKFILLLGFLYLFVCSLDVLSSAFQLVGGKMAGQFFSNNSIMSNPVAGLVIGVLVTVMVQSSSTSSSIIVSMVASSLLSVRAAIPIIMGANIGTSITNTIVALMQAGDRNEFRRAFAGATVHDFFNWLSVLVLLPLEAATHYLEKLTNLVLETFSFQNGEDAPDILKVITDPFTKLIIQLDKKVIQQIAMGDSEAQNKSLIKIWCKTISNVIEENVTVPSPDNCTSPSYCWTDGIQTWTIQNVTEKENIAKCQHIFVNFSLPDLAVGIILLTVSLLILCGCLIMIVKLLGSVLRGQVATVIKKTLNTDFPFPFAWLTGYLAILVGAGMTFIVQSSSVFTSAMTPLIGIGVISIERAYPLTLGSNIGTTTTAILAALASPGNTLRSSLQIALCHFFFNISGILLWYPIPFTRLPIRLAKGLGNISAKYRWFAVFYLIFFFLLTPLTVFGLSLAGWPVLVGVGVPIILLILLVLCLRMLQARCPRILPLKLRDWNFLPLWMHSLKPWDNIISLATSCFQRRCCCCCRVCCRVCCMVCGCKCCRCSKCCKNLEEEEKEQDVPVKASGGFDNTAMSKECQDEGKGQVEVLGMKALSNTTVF
Outline: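 HEK293 cells transiently transfected with NaP2b cDNA, endogenous PiT transport suppressed; ^33P-phosphate uptake measured in sodium vs choline buffer (100 uM KH2PO4, pH 7.4) for 3–30 min at room temperature. Twelve concentrations, 0.1 nM–30 uM, in duplicate; uptake by scintillation counting, pIC50 calculated.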

rat NaP2b (SLC34A2) [3] = molecular target: T1, rat NaP2b (SLC34A2); assay: Inhibition of NaP2b-mediated Pi (33P) uptake in transfected HEK293 cells, rat NaP2b; type: cell-based; conditions: 33P Pi uptake, 0.1 mM phosphate, value given as pIC50 range
Outline: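 HEK293 cells were transiently transfected with NaP2b cDNA using Lipofectamine and grown near confluence. Compounds were tested at twelve concentrations from 0.1 nM to 30 uM in duplicate, and 33P-phosphate uptake was counted by scintillation after lysis. Results are expressed as pIC50.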

[4] = system: Uptake of Phosphorus from the Intestine; assay: In vivo bolus phosphorus challenge; set-up: species or system rat; conditions: Sprague-Dawley rats on low-phosphorus diet; oral Drug Dose 30, 15 min before phosphate bolus; serum 30 min post bolus
Description: By pretreating animals with a low phosphorus diet followed by the subsequent dosing of a phosphorus bolus, serum phosphorus levels were monitored after 30 minutes as a surrogate for intestinal phosphorus absorption. […] The in vivo bolus phosphorus challenge model used here mimics this model in rats.
Male, 7-week-old Sprague-Dawley rats (Charles-River laboratories international, Hollister, Calif.) were allowed to acclimatize for a minimum of 3 days before switching to a synthetic low-phosphorus diet (TD.85010, Harlan Teklad, Madison, Wis.) which contains 0.1% phosphorus and 0.6% calcium. At day 5, testing compounds or vehicle alone (as indicated) were orally administered at the indicated dose in a volume of 5 ml/kg, followed by a bolus gavage of monobasic sodium phosphate (1 mmol in 1 ml) 15 min after compound dosing. Serum was collected via retroorbital bleeding 30 min post phosphate bolus and phosphate levels were determined utilizing an ACE ALERA blood chemistry analyzer (Alfa Wassermann Diagnostic Technologies, West Caldwell, N.J.).
The extent of inhibition by test compounds on the elevation of serum phosphate levels in response to the bolus of phosphorus is shown in Table 12 (data are expressed as % Inhibition, with 6-10 animals per data point). The differences between groups were evaluated by one-way analysis of variance with Dunnett's post hoc tests.

[5] = Stability of compounds in simulated intestinal fluid (SIF); type: in vitro ADME; conditions: simulated intestinal fluid (3 mg/mL pancreatin), incubation time 6 hr, relative to t=0
Outline: (§2)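 Compounds at […] were incubated 3 or 6 hr in USP simulated gastric fluid with 3 mg/mL pepsin or simulated intestinal fluid with 3 mg/mL pancreatin. Remaining compound was quantified by HPLC-UV or HPLC-MS peak area % and reported as percent of the t=0 level in the same medium.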

[6] = Stability of compounds in simulated gastric fluid (SGF); type: in vitro ADME; conditions: simulated gastric fluid (3 mg/mL pepsin), incubation time 6 hr, relative to t=0
Outline: as §2

[7] = Fecal recovery of orally administered compounds; type: in vivo, Sprague-Dawley rats; conditions: Structure (I) examples, Table 16; rat, oral gavage, feces collected until 48 hr after dosing
Text: (§3) The animals were kept in metabolic cages and feces were collected from the time of dosing until 48 hr after dosing. Upon collection, feces were dried by lyophilization and ground to a visually homogenous powder. Duplicate samples of ground feces from each individual animal were weighed out and extracted using organic solvent. […] Extraction conditions were not optimized for individual compounds, and thus may represent a minimal level of recovery.
as §3, with “collection, feces was dried by” for “collection, feces were dried by”
as §3, with “collection, feces was dried by” for “collection, feces were dried by”
The animals were kept in metabolic cages and feces were collected from the time of dosing until 48 hr after dosing. Upon collection, feces was dried by lyophilization and ground to a visually homogenous powder. Duplicate samples of ground feces from each individual animal were weighed out and extracted using organic solvent.

[8] = Determination of compound Cmax and AUC after oral gavage (plasma LC-MS/MS); type: in vivo, Sprague-Dawley rats; conditions: Sprague-Dawley, Structure (I) examples, Table 15, rat, actual oral dose 3-15 mg/kg, plasma 0.5-4 h
Outline: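 Sprague-Dawley rats dosed by oral gavage at nominal 2.5 or 10 mg/kg; blood drawn at 0.5, 1, 2 and 4 h into K2EDTA. Plasma protein-precipitated with acetonitrile plus internal standard and analysed by LC-MS/MS against a plasma standard curve to derive Cmax and AUC.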

NaPi2b [9] = assay: Competition with phosphate: Pi uptake assay repeated at 2.1 vs 0.1 mM phosphate; type: cell-based; conditions: potency at 2.1 vs 0.1 mM phosphate
Text: For example, a phosphate uptake assay can be performed and the IC50 values for a compound at different phosphate concentrations can be determined (e.g., “Enzyme kinetics”, I. Segel, 1975, John-Wiley & Sons, p. 123). IC50 values for non-competitive inhibitors will remain the same or similar with respect to the phosphate concentration, whereas IC50 values for competitive inhibitors will increase (i.e lose potency) as phosphate concentration increases.
(§4) To ascertain if an inhibitor was competitive for binding with phosphate, the procedure was repeated, but raising the concentration of the substrate in the assay mixture from 0.1 to 2.1 mM phosphate.

[10] = system: Uptake of Phosphorus from the Intestine; assay: In vivo co-dosing in chow (urine P out / P consumed); conditions: Rattus norvegicus, feed or water; rats, compound in chow; mean drug dose 101 mg/kg/day; read-out: Mean % inhibition Urine Pout/P consumed
Text: Male, 7-week-old Sprague-Dawley rats (Charles-River laboratories international, Hollister, Calif.) were allowed to acclimate for a minimum of 3 days. The experiment was initiated by switching animals to a synthetic diet (0.6% phosphorus and 0.6% calcium, Harlan Teklad TD.84122) for four days. After this time, the animals were placed into metabolic cages for daily monitoring of food and water consumption, as well as urine and fecal collections. Test compounds were incorporated into the powdered diet listed above containing 3% chocolate flavoring (w/w, BioServ #7345) at 1.3 mg test compound per gram of diet to achieve an average daily nominal dose of 100 mg/kg/day. The actual dose received by each animal was later determined by measuring prepared diet consumption and body weight. Urine samples were collected in three daily periods from 24-48, 48-72, and 72-96 hours of drug dosing. Averaging these three 24 h periods allows for the more representative measurements of urination, fecal excretion, food consumption and water uptake for each animal. Phosphorus levels in the urine were determined by anion exchange chromatography using a Dionex ICS-3000 ion chromatography system. Urine samples were diluted 1:500 or 1:1000 and injected onto an IonPac AS18 analytical column (2×250 mm) using a potassium hydroxide eluent. Elution of urine phosphate ions was monitored via conductivity detector and reported as ppm relative to a standard ion solution containing phosphate. Daily urinary P output relative to the P consumed in the prepared diet for each animal was calculated. The percentage inhibition of phosphorus absorption was estimated by determining the reduction of this ratio compared to the control group (animals with no drug in chow). The differences between the means of control and treated groups were evaluated by t tests. In all experiments, one group was always included that had Renvela powder blended into their chow at 0.9% targeting a dose of 750 mg/kg.

NaPi2b [11] = molecular target: T2, NaPi2b (Rattus norvegicus, UniProt Q9JJ09); assay: Competition with phosphate: Pi transport assay repeated at 2.1 vs 0.1 mM phosphate; type: cell-based; conditions: potency at 2.1 vs 0.1 mM phosphate
T2 construct: host or cells: HEK293
T2 sequence (Q9JJ09 1-695): T1 sequence (Q9JJ09 1-695)
Description: as §4

[12] = Structure (II) examples, Table 2
[13] = Structure (III) examples, Table 2
[14] = Structure (IV) examples, Table 1

% remaining, SGF ([1]; simulated gastric fluid): 7%
% remaining, SIF ([1]; simulated intestinal fluid): 90%
IC50 (rat NaP2b (SLC34A2) [2]; Structure (V) examples, Table 2, rat NaP2b, HEK293, read-out: pIC50 Range (converted)): 0.1 to 0.794 µM
SMILES: O=C(O)CNC(=O)CCSCc1cccc(C(=O)Nc2ccc(N3CCCCC3)cc2C(=O)N/N=C/c2ccc(Cl)c(C(F)(F)F)c2)c1 [Ex. 50, (E)-2-(3-(3-(2-(2-(4-chloro-3-(trifluoromethyl)benzylidene)hydrazinecarbonyl)-4-(piperidin-1-yl)phenylcarbamoyl)benzylthio)propanamido)acetic acid]

IC50 (rat NaP2b (SLC34A2) [3]): 1 to 7.94 µM
SMILES: O=C(O)CCSCc1cccc(C(=O)Nc2ccc(N3CCCCC3)cc2-c2cc(C(=O)NCc3cc(C(F)(F)F)cc(C(F)(F)F)c3)ccn2)c1 [Example 1.32]
% Inhibition of Serum P elevation [4]: 20-30%

IC50 (rat NaP2b (SLC34A2) [3]): 10 to 31.6 µM
SMILES: O=C(NCCN1CCOCC1)c1cccc(C(=O)Nc2ccc(N3CCCCC3)cc2-c2cc(C(=O)NCc3cccc(C(F)(F)F)c3)ccn2)c1 [Example 4.4, N1-(2-Morpholinoethyl)-N3-(4-(piperidin-1-yl)-2-(4-((3-(trifluoromethyl)benzyl)carbamoyl)pyridin-2-yl)phenyl)isophthalamide]
% Inhibition of Serum P elevation [4]: 40-50%

SMILES: CN(CCN1CCOCC1)C(=O)c1cccc(C(=O)Nc2ccc(N3CCCCC3)cc2-c2cc(C(=O)N[C@H]3CCCc4ccccc43)ccn2)c1.Cl [Example 37, (S)—N1-Methyl-N1-(2-morpholinoethyl)-N3-(4-(piperidin-1-yl)-2-(4-((1,2,3,4-tetrahydronaphthalen-1-yl)carbamoyl)pyridin-2-yl)phenyl)isophthalamide]
% remaining, SIF [5]: >80%
% remaining, SGF [6]: >80%
% recovered in feces [7]: <20%
AUC [8]: < 30 ng·h/mL
Cmax [8]: < 10 ng/mL
Competitive with respect to Pi? (NaPi2b [9]): No
inhibition in vivo at 101 mg/kg/day [10]: ≤ 10%

pIC50 range for rat Nap2b (rat NaP2b (SLC34A2) [3]): 2-3
pIC50 range for rat Nap2b (rat NaP2b (SLC34A2) [2]; [12]): 2-3
pIC50 range for rat Nap2b (rat NaP2b (SLC34A2) [2]; [13]): 2-3
pIC50 range for rat Nap2b (rat NaP2b (SLC34A2) [2]; [14]): 2-3
Competitive with respect to Pi? (NaPi2b [11]; [12]): Yes
Competitive with respect to Pi? (NaPi2b [11]; [13]): Yes
Competitive with respect to Pi? (NaPi2b [11]; [14]): Yes
SMILES: O=C(O)P(=O)(O)O [PFA]
Competitive with respect to Pi? (NaPi2b [9]): Yes
